# In patent US8232406B2, “c-MET protein kinase inhibitors” (Vertex Pharmaceuticals Incorporated, priority 2006, dated 2012):
# Target: c-MET (Homo sapiens, UniProt P08581)
# Test: Ki determination for the inhibition of c-MET (standard radiometric 33P-ATP kinase assay, polyE4Y substrate)
# Format: biochemical
# Details: 1.0 nM c-Met, 35 μM ATP, 0.5 mg/mL polyE4Y, 20 min; competitive tight-binding fit
# How it was run: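 Radiometric assay of 33P transfer from 33P-ATP (35 μM) to polyE4Y (0.5 mg/mL) by 1.0 nM c-Met in 100 mM HEPES pH 7.5, 10 mM MgCl2, 25 mM NaCl, 0.01% BSA, 1 mM DTT. TCA-quenched after 20 min, filter-captured, scintillation-counted; Ki fitted to a competitive tight-binding model.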
# Sequence of c-MET (P08581 25-1390): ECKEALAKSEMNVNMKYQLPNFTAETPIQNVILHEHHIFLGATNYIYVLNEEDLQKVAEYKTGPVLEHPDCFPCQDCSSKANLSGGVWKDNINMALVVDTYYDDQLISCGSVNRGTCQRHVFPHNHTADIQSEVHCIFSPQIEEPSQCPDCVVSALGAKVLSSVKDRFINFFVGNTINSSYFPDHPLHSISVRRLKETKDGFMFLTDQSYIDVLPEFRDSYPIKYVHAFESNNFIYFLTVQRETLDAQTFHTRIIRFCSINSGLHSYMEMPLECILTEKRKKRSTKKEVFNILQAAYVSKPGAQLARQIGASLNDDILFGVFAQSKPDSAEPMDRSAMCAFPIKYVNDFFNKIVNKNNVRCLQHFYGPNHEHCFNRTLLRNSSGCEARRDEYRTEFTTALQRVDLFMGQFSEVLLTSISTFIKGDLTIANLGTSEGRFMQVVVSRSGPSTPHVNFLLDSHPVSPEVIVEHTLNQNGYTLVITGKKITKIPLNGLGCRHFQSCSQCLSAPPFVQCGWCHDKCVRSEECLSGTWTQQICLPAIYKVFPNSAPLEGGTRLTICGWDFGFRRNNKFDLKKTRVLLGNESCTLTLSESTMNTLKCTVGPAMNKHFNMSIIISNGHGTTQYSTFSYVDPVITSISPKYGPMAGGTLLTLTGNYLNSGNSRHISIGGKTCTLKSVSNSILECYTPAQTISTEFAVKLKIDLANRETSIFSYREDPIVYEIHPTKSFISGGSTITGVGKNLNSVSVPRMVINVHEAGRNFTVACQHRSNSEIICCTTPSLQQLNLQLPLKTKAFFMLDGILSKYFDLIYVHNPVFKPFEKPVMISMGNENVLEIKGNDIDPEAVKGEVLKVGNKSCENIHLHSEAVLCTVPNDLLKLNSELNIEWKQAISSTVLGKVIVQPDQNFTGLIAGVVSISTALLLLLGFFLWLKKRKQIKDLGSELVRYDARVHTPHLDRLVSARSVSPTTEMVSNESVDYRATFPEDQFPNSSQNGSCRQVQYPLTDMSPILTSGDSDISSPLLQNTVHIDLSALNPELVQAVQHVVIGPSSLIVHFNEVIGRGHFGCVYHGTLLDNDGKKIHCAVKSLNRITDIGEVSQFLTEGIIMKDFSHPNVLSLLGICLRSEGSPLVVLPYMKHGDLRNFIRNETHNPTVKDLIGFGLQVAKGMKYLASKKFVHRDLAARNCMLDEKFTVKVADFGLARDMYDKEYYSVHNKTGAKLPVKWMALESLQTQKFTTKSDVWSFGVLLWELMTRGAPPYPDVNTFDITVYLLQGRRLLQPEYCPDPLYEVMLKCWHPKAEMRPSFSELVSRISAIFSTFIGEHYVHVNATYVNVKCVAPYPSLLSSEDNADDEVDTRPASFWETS
row,Structure (SMILES),Ki [nM]
1,CN(C)Cc1ccc(-c2cnc(N)c(-c3nnnn3-c3c(F)cccc3Cl)c2)cc1 [I-A-623],≤ 100
2,Cc1c(Cl)cccc1-n1nnnc1-c1cc(-c2cnn(C3CCNCC3)c2)cnc1N [I-A-624],≤ 100
3,Nc1ncc(-c2cnn(C3CCNCC3)c2)cc1-c1nnnn1-c1cc(F)cc(F)c1 [I-A-627],100 to 1000
4,CN(C)Cc1ccc(-c2cnc(N)c(-c3nnnn3-c3c(Cl)cccc3Cl)c2)cc1 [I-A-629],≤ 100
5,CN(C)Cc1ccc(-c2cnc(N)c(-c3nnnn3-c3c(F)ccc(F)c3Cl)c2)cc1 [I-A-630],≤ 100
6,Nc1ncc(-c2cnn(C3CCNCC3)c2)cc1-c1nnnn1-c1c(Cl)cccc1Cl [I-A-631],≤ 100
7,Cc1ccc(Cl)cc1-n1nnnc1-c1cc(-c2cnn(C3CCNCC3)c2)cnc1N [I-A-632],100 to 1000
8,COc1ccc(F)cc1-n1nnnc1-c1cc(-c2cnn(C3CCNCC3)c2)cnc1N [I-A-633],100 to 1000
9,Nc1ncc(-c2cnn(C3CCNCC3)c2)cc1-c1nnnn1-c1cc(F)cc(F)c1Cl [I-A-634],100 to 1000
10,Nc1ncc(-c2cnn(C3CCNCC3)c2)cc1-c1nnnn1-c1cc(Cl)ccc1F [I-A-635],≤ 100
11,Nc1ncc(-c2cnn(C3CCNCC3)c2)cc1-c1nnnn1-c1cc(Cl)ccc1Cl [I-A-636],100 to 1000
12,Nc1ncc(-c2cnn(C3CCNCC3)c2)cc1-c1nnnn1-c1cc(F)ccc1Cl [I-A-637],100 to 1000
13,CC(=O)Nc1ccc(-c2cnc(N)c(-c3nnnn3-c3c(F)cccc3Cl)c2)cc1 [I-A-639],100 to 1000
14,Nc1ncc(-c2cnn(C3CCNCC3)c2)cc1-c1nnnn1-c1c(F)ccc(F)c1Cl [I-A-640],≤ 100
15,Nc1ncc(-c2cnn([C@H]3CCCNC3)c2)nc1-c1nnnn1-c1cccc(Cl)c1F [I-A-658],≤ 100

# Continued, values first:
row,Ki [nM],Structure (SMILES)
1,100 to 1000,Nc1ncc(-c2cnn(C3CCNCC3)c2)cc1-c1nnnn1-c1cc(F)ccc1F [I-A-625]
2,≤ 100,Nc1ncc(-c2cnn(C3CCNCC3)c2)cc1-c1nnnn1-c1cccc(Cl)c1F [I-A-626]
3,≤ 100,Nc1ncc(-c2cnn(C3CCNCC3)c2)cc1-c1nnnn1-c1c(F)cccc1F [I-A-628]
4,100 to 1000,COc1c(F)cccc1-n1nnnc1-c1cc(-c2cnn(C3CCNCC3)c2)cnc1N [I-A-638]
5,100 to 1000,CC(=O)N1CCC[C@H]1C(=O)N1CC=C(c2cnc(N)c(-c3nnnn3-c3cccc(F)c3F)c2)CC1 [I-A-641]
6,≤ 100,Nc1ncc(C2=CCN(C(=O)[C@@H]3CCC(=O)N3)CC2)cc1-c1nnnn1-c1cccc(F)c1F [I-A-642]
7,100 to 1000,Nc1ncc(C2=CCN(CC3CCOC3)CC2)cc1-c1nnnn1-c1cccc(F)c1F (stereo not shown) [I-A-643]
8,100 to 1000,Nc1ncc(C2=CCN(Cc3cccnc3)CC2)cc1-c1nnnn1-c1cccc(F)c1F [I-A-644]
9,100 to 1000,Nc1ncc(C2=CCCNCC2)cc1-c1nnnn1-c1cccc(F)c1F [I-A-646]
10,100 to 1000,Nc1ncc(C2=CCCN(C(=O)C(F)(F)F)CC2)cc1-c1nnnn1-c1cccc(F)c1F [I-A-647]
11,100 to 1000,CC(=O)N1CCC[C@@H]1C(=O)N1CC=C(c2cnc(N)c(-c3nnnn3-c3cccc(F)c3F)c2)CC1 [I-A-649]
12,≤ 100,Nc1ncc(-c2cnn(C3CNC3)c2)cc1-c1nnnn1-c1cccc(Cl)c1F [I-A-650]
13,≤ 100,Nc1ncc(-c2cnn(C3CCCNCC3)c2)cc1-c1nnnn1-c1cccc(Cl)c1F (stereo not shown) [I-A-651]
14,≤ 100,Nc1ncc(-c2ccn(C3CCNCC3)c2)cc1-c1nnnn1-c1cccc(Cl)c1F [I-A-652]
15,≤ 100,Nc1ncc(-c2cc3c(s2)CCNCC3)nc1-c1nnnn1-c1cccc(F)c1F [I-A-653]
16,100 to 1000,Nc1ncc(-c2csc(C3CCNCC3)c2)nc1-c1nnnn1-c1cccc(F)c1F [I-A-654]
17,≤ 100,Nc1ncc(-c2cnn([C@H]3CCCNC3)c2)nc1-c1nnnn1-c1cccc(F)c1F [I-A-655]
18,≤ 100,Nc1ncc(-c2cnn(C3CCCNCC3)c2)nc1-c1nnnn1-c1cccc(F)c1F (stereo not shown) [I-A-656]
19,≤ 100,Nc1ncc(C2=CCN(C(=O)[C@H]3CCC(=O)N3)CC2)cc1-c1nnnn1-c1cccc(F)c1F [I-A-657]
